These results are taken from patent US20250034165A1, “COMPOUND CONTAINING CYCLOALKYL OR HALOALKYL” (CHIA TAI TIANQING PHARMACEUTICAL GROUP CO., LTD., priority 2021, published 2025).

SMILES strings stand for the structures. A value given as a limit tells only on which side of the number the result lay.

Assay [1] has as its target EGFR (d746-750/T790M/C797S) (Homo sapiens (Human), UniProt P00533, C797S/DEL746-750/T790M). The assay can be described thus: Inhibitory activity for EGFR (d746-750/T790M/C797S) kinase. The class given is biochemical. The settings on record: ATP 5 μM; read-out: EGFR(d19/T790M/C797S) (IC50). The protocol: 1.5 Screening for Inhibitory Activity for EGFR (d746-750/T790M/C797S) Kinase
(§1) A 50 ng/μL EGFR (d746-750/T790M/C797S, BPS) stock solution was diluted with a kinase buffer (50 mM HEPES, 10 mM MgCl2, 2 mM DTT, 1 mM EGTA, 0.01% Tween 20), and 6 μL of 1.67× working solution at 0.05 ng/μL (final concentration: 0.03 ng/μL) was added to each well. Different compounds dissolved in DMSO were added to the wells using a nanoliter pipettor, resulting in the final concentrations of the compounds of 10 nM to 0.0024 nM (4-fold gradient for 7 concentrations in total), and blank control wells (without enzyme) and negative control wells (with enzyme, plus vehicle DMSO) were set, 2 replicate wells for each concentration. After enzyme was reacted with the compound or vehicle for 30 min, 5×ATP at 25 μM (final concentration: 5 μM, Sigma) prepared with a kinase buffer was mixed with 5× substrate at 0.5 μM (final concentration: 0.1 μM, ULight-poly GT, PerkinElmer) at a ratio of 1:1 (v:v), and the mixture was added to each well at 4 μL/well. After being sealed with a film, the plate was incubated at room temperature for 2 h, and then 5 μL of 4×EDTA at 40 mM (final concentration: 10 mM) was added to each well. After the plate was incubated for 5 min at room temperature, 5 μL of 4× detection reagent at 8 nM (final concentration: 2 nM, Eu-anti-phospho-tyrosine antibody, PerkinElmer) was added to each well. After being incubated at room temperature for 1 h, the plate was read using a PerkinElmer Envision multi-mode microplate reader (excitation: 320 nm, emission: 665 nm), and IC50 was calculated by four-parameter fitting.

Assay [2] addresses EGFR (d746-750 (d19)/T790M) (Homo sapiens (Human), UniProt P00533, DEL746-750/T790M). Briefly: Inhibitory activity for EGFR (d746-750 (d19)/T790M) kinase. The class given is biochemical. The settings on record: ATP 5 μM. The protocol:
1.3 Screening for Inhibitory Activity for EGFR (d746-750 (d19)/T790M) Kinase
as §1, with “(d746-750/T790M, Carna)” for “(d746-750/T790M/C797S, BPS)”, “0.005” for “0.05”, “0.003” for “0.03”

The subject of assay [3] is BAF3-EGFR (L858R/T790M/C797S) cells. The assay can be described thus: Inhibition of proliferation of BAF3-EGFR (L858R/T790M/C797S) cells, CCK-8. The class given is cell-based. The conditions noted are these: Ba/F3 EGFR, 72 h, read-out: BAF3(EGFR T790M L858R C797S) cell inhibitory activity IC50. The protocol:
A flask of EGFR (L858R/T790M/C797S) cells in the logarithmic growth phase and good conditions was taken, and the cells were collected and added to a centrifuge tube. 20 μL of cells were taken and counted, and the required number of cells (mL) was pipetted and centrifuged at 1200 rpm for 3 min. The supernatant was discarded, and an appropriate amount of plating medium (RPMI medium+10% FBS) was added to adjust the cell density to 1.5×10^5 cells/mL. The cells were seeded on a 96-well plate at 100 μL/well using a multi-channel pipette and cultured in a cell incubator at 37° C., 5% CO2 with saturated humidity. After overnight incubation, compounds were loaded using a nanoliter pipettor, 2 duplicate wells were set for each concentration, and cells without compound added were used as negative controls.
Inhibition rate (%)=(mean value of negative control group-mean value of experimental group)/(mean value of negative control group−mean value of blank group)×100%.
A dose-response curve was fitted by four-parameter analysis, with the logarithm of compound concentration serving as abscissa and inhibition rate serving as ordinate, such that IC50 was calculated.

Sequence of EGFR (d746-750/T790M/C797S) (P00533 other isoform, or with tags, fused parts or gaps T790M/C797S/del 1-694/del 746-750 limits assumed): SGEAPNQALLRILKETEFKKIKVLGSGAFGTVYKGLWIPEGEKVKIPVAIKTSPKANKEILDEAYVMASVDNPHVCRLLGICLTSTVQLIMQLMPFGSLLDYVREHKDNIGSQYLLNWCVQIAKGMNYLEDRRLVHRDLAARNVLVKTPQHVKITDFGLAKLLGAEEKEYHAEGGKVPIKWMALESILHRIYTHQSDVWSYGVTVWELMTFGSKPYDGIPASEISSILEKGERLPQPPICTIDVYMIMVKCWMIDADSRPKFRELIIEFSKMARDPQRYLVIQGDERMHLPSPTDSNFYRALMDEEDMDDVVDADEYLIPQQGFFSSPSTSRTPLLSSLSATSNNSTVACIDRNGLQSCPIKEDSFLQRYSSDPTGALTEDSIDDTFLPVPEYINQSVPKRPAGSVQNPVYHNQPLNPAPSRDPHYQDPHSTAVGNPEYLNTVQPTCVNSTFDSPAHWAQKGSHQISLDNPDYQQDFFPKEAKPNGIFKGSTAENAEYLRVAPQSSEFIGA
Sequence of EGFR (d746-750 (d19)/T790M) (P00533 other isoform, or with tags, fused parts or gaps T790M/del 1-668/del 746-750 limits assumed): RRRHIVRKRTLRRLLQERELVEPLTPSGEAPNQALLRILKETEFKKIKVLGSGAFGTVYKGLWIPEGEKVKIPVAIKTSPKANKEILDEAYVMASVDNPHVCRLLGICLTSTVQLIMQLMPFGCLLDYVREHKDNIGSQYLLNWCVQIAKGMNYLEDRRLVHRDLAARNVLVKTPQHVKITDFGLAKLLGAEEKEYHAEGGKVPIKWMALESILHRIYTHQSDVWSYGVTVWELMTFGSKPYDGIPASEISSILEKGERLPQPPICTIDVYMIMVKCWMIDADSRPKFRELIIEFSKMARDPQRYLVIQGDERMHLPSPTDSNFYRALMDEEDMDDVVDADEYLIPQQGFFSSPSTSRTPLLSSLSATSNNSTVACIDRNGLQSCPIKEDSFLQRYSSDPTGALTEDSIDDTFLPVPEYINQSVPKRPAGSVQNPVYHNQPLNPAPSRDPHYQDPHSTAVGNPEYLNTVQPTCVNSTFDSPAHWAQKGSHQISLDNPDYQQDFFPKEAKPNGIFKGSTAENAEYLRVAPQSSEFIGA

Regarding `Cc1cc2cc(n1)-c1cnn(C)c1OCCC[C@@H](C1CC1)CN1/C(=N/C2=O)Nc2cc(NCCN3CCOCC3)ccc21` [Example 3], the IC50 came out at 0.028 nM in assay [1] and 0.014 nM in assay [2]. For `Cc1cc2cc(n1)-c1cnn(C3CC3)c1OCCC[C@@H](C)CN1/C(=N/C2=O)Nc2cc(NCCN3CCOCC3)ccc21` [Example 5], the IC50 was determined as 0.074 nM in assay [1] and 0.05 nM in assay [2].

Regarding `Cc1cc2cc(n1)-c1cnn(C3CC3)c1OCCC[C@@H](C)CN1/C(=N/C2=O)Nc2cc(NC3CCN(C)CC3)ccc21` [Example 12], the IC50 is 0.17 nM in assay [1] and 0.15 nM in assay [2]. Take `Cc1cc2cc(n1)-c1cnn(C3CC3)c1OCCC[C@@H](C)CN1/C(=N/C2=O)Nc2cc(N[C@@H]3CCOC3)ccc21` [Example 13]: the IC50 in assay [1] came to 0.11 nM; in assay [2] it was 0.058 nM. As for `Cc1cc2cc(n1)-c1cnn(C3CC3)c1OCCC[C@@H](C)CN1/C(=N/C2=O)Nc2cc(NC[C@H]3COCCO3)ccc21` [Example 14], the IC50 in assay [1] stood at 0.1 nM; in assay [2], 0.068 nM.

On to `Cc1cc2cc(n1)-c1cnn(C3CC3)c1OCCC[C@@H](C)CN1/C(=N/C2=O)Nc2ccc(N3CC[C@H](O)C3)cc21` [Example 16], for which the IC50 in assay [1] was determined as 0.063 nM; in assay [2], 0.06 nM.

Consider `Cc1cc2cc(n1)-c1cnn(C)c1OCCC[C@@H](C1CC1)CN1/C(=N/C2=O)Nc2cc(N[C@@H]3CCCOC3)ccc21` [Example 18], for which the IC50 in assay [1] stood at 0.042 nM; in assay [2] it was 0.02 nM.

With `Cc1cc2cc(n1)-c1cnn(C)c1OCCC[C@@H](C1CC1)CN1/C(=N/C2=O)Nc2cc(NC[C@H]3COCCO3)ccc21` [Example 19], the IC50 in assay [1] was determined as 0.028 nM; in assay [2], 0.015 nM. The matching figures for `Cc1cc2cc(n1)-c1cnn(C)c1OCCC[C@@H](C1CC1)CN1/C(=N/C2=O)Nc2ccc(N3CC[C@H](O)C3)cc21` [Example 21]: 0.059 nM and 0.032 nM.

For the compound `Cc1cc2cc(n1)-c1cnn(C)c1OCCC[C@@H](C1CC1)CN1/C(=N/C2=O)Nc2cc(NC3COC3(C)C)ccc21` (some centres unmarked) [Example 30], the values for the IC50 in assay [1] and in assay [2] were 0.046 nM and 0.03 nM, respectively. On to `Cc1cc2cc(n1)-c1cnn(C)c1OCCC[C@@H](C1CC1)CN1/C(=N/C2=O)Nc2cc(NC3C(C)(C)OC3(C)C)ccc21` [Example 31], for which the IC50 in assay [1] is 0.031 nM; in assay [2] it was 0.018 nM.

As for `Cc1cc2cc(n1)-c1cnn(C)c1OCCC[C@@H](C1CC1)CN1/C(=N/C2=O)Nc2cc(NC3CNC3)ccc21` [Example 32], the IC50 in assay [1] is 0.013 nM; in assay [2], 0.01 nM. The matching figures for `Cc1cc2cc(n1)-c1cnn(C)c1OCCC[C@@H](C1CC1)CN1/C(=N/C2=O)Nc2cc(NC3(C)CNC3)ccc21` [Example 34]: 0.016 nM and 0.014 nM.

`Cc1cc2cc(n1)-c1cnn(C)c1OCCC[C@@H](C1CC1)CN1/C(=N/C2=O)Nc2cc(N[C@@H]3CCOC3)ccc21` [Example 43]: the IC50 in assay [1] turned out to be 0.026 nM; in assay [2], 0.015 nM. The matching figures for `CNCCCNc1ccc2c(c1)N/C1=N\C(=O)c3cc(C)nc(c3)-c3cnn(C)c3OCCC[C@@H](C3CC3)CN12` [Example 49]: 0.039 nM and 0.03 nM. With `Cc1cc2cc(n1)-c1cnn(C)c1OCCC[C@@H](C1CC1)CN1/C(=N/C2=O)Nc2cc(NCCCN)ccc21` [Example 50], the IC50 was determined as 0.053 nM in assay [1] and 0.038 nM in assay [2]. `Cc1cc2cc(n1)-c1cnn(C)c1OCCC[C@@H](C1CC1)CN1/C(=N/C2=O)Nc2cc(NCCCCN(C)C)ccc21` [Example 51]: the IC50 was 0.02 nM in assay [1], less than 5 nM in assay [3] and 0.013 nM in assay [2]. Take `Cc1cc2cc(n1)-c1cnn(C)c1OCCC[C@@H](C1CC1)CN1/C(=N/C2=O)Nc2cc(N[C@H](C)CN(C)C)ccc21` [Example 67]: the figures for the IC50 in assay [1] and in assay [3] were 0.083 nM and less than 5 nM, respectively. With `Cc1cc2cc(n1)-c1cnn(C)c1OCCC[C@@H](C1CC1)CN1/C(=N/C2=O)Nc2cc(NCCN3CCCCC3)ccc21` [Example 73], the IC50 in assay [3] was less than 5 nM.

Consider `Cc1cc2cc(n1)-c1cnn(C)c1OCCC[C@@H](C1CC1)CN1/C(=N/C2=O)Nc2cc(NC3CCC3)ccc21` [Example 79], for which the figures for the IC50 in assay [1] and in assay [2] were 0.153 nM and 0.028 nM, respectively.

As to `Cc1cc2cc(n1)-c1cnn(C)c1OCCC[C@@H](C1CC1)CN1/C(=N/C2=O)Nc2ccc(NCCCN3CCCC3)cc21` [Example 84], the IC50 in assay [1] amounted to 0.042 nM; in assay [2], 0.018 nM. Take `Cc1cc2cc(n1)-c1cnn(C)c1OCCC[C@@H](C1CC1)CN1/C(=N/C2=O)Nc2ccc(NC3CCCC3)cc21` [Example 87]: the values for the IC50 in assay [1] and in assay [2] were 0.318 nM and 0.058 nM, respectively. Turning to `Cc1cc2cc(n1)-c1cnn(C)c1OCCC[C@@H](C1CC1)CN1/C(=N/C2=O)Nc2cc(NC3CC(N(C)C)C3)ccc21` (some centres unmarked) [Example 93], the IC50 in assay [2] turned out to be 0.11 nM. Still for that read-out and setting: then `Cc1cc2cc(n1)-c1cnn(C)c1OCCC[C@@H](C1CC1)CN1/C(=N/C2=O)Nc2cc(NC3CC(F)C3)ccc21` (some centres unmarked) [Example 94], with 0.75 nM. `Cc1cc2cc(n1)-c1cnn(C)c1OCCC[C@@H](C1CC1)CN1/C(=N/C2=O)Nc2ccc(NC(=O)CN(C)C)cc21` [Example 111]: the figures for the IC50 in assay [1] and in assay [3] were 0.073 nM and less than 5 nM, respectively. For the compound `Cc1cc2cc(n1)-c1cnn(C)c1OCCC[C@@H](C1CC1)CN1/C(=N/C2=O)Nc2ccc(NC(=O)CCCN(C)C)cc21` [Example 113], the IC50 in assay [1] came out at 0.066 nM. For `Cc1cc2cc(n1)-c1cnn(C)c1OCCC[C@@H](C1CC1)CN1/C(=N/C2=O)Nc2cc(N[C@H](C)CN3CCCCC3)ccc21` [Example 137], the IC50 in assay [1] is 0.085 nM; in assay [3], less than 5 nM.

On to `Cc1cc2cc(n1)-c1cnn(C)c1OCCC[C@@H](C1CC1)CN1/C(=N/C2=O)Nc2cc(N[C@@H](C)CN3CCCCC3)ccc21` [Example 138], for which the IC50 in assay [1] is 0.087 nM; in assay [3] it was less than 5 nM. As for `Cc1cc2cc(n1)-c1cnn(C)c1OCCC[C@@H](C1CC1)CN1/C(=N/C2=O)Nc2cc(N[C@@H](C)CCN3CCCCC3)ccc21` [Example 140], the IC50 in assay [1] is 0.077 nM; in assay [3], less than 5 nM. The matching figures for `Cc1cc2cc(n1)-c1cnn(C)c1OCCC[C@@H](C1CC1)CN1/C(=N/C2=O)Nc2ccc(N[C@@H](C)CN3CCCCC3)cc21` [Example 142]: 0.079 nM and less than 5 nM.

Take `[2H]C([2H])([2H])N(C[C@@H](C)Nc1ccc2c(c1)N1C[C@H](C3CC3)CCCOc3c(cnn3C)-c3cc(cc(C)n3)C(=O)/N=C/1N2)C([2H])([2H])[2H]` [Example 145]: the IC50 in assay [3] was less than 5 nM. For `Cc1cc2cc(n1)-c1cnn(C)c1OCCC[C@@H](C1CC1)CN1/C(=N/C2=O)Nc2cc(N[C@@H]3CC[C@H](O)C3)ccc21` [Example 150], the IC50 in assay [3] is less than 5 nM.
